≈ marks a conversion by molar mass, not a printed value.
Experiment: Test 1: solubility of Edaravone in various aqueous solubilizer solutions (saturated solution at 4° C., HPLC)
Assay type: physicochemical
Conditions: aqueous with cosolvent or surfactant or cyclodextrin, thermodynamic from solid
Procedure: Water for injection (5 mL) was added to 5 mL of each of ethanol, propylene glycol, polyethylene glycol 400 and N,N-dimethylacetamide widely used as a solubilizer for an intravenous injection, followed by stirring. Edaravone was added to the resulting aqueous solubilizer solution and the mixture was stirred in a thermostat maintained at 4° C. by using a stirrer at a fixed but not bubbling speed all day and night. After completion of the stirring, a portion of Edaravone which had remained undissolved was checked visually to confirm that each solution thus obtained was a saturated aqueous solution of Edaravone. Then, the solution was quickly filtered through a membrane filter (pore size: 0.45 μm) kept at 4° C. and the amount of Edaravone contained in the filtrate was measured by HPLC method as explained below. Further, the maximum amount of each of the solubilizers used a day as an injection for intravenous administration was also shown (Iyakuhin-tenkabutu-jiten 2000 (published by Yakuji-nippou-sha), p. 127, 264 and 229 to 230. The maximum amount of ethanol was calculated based on the amount used for NIMOTOP IV (registered trademark, Bayer Co.)) and its solubilizing effect on Edaravone was calculated as a numerical term.
Measuring Method by HPLC and its Conditions:
By liquid chromatography (LC) using ethyl paraaminobenzoate as an internal standard substance, a peak area ratio of Edaravone to the internal standard substance was found and based on it, the concentration of Edaravone was determined. • Detector: Ultraviolet spectrophotometer (wavelength measured: 240 nm) • Column: A stainless tube having inside diameter of about 4 mm and length of about 15 cm and filled with octadecylsilylated silica-gel 5 μm was used at a fixed temperature near 50° C. • Mobile phase: A (3:1) mixed solution of 10 mM aqueous acetic acid solution and methanol, adjusted to pH 5.5 with aqueous ammonia • Flow rate: adjusted so that the retention time of Edaravone would be about 8 minutes.

- solubility (50 v/v % N,N-dimethylacetamide in water, in 50 v/v % N,N-Dimethylacetamide, 4° C.): 20 mg/mL (≈ 115 mM)
- solubility (50 v/v % ethanol in water, in 50 v/v % Ethanol, 4° C.): 10 mg/mL (≈ 57.4 mM)
- solubility (50 v/v % polyethylene glycol 400 in water, in 50 v/v % Polyethylene glycol 400, 4° C.): 13 mg/mL (≈ 74.6 mM)
- solubility (50 v/v % propylene glycol in water, in 50 v/v % Propylene glycol, 4° C.): 6 mg/mL (≈ 34.4 mM)
Compound: CC1=NN(c2ccccc2)C(=O)C1 [Edaravone, 3-Methyl-l-phenyl-2-pyrazolin-5-one]

Reference: US7211596B2, “Stable high-concentration injection containing pyrazolone derivative” (Mitsubishi Pharma Corporation, priority 2001, dated 2007)
